Experimental data taken from ChEMBL document CHEMBL1131386, “Synthesis and evaluation of 11beta-substituted 21-chloro/iodo-(17alpha,20E/Z)-19-norpregna-1,3,5(10),20-te traene-3, 17beta-diols: high-affinity ligands for the estrogen receptor” (J Med Chem, 1998).

Assays:
[1] = target: T1, Estrogen receptor (Ovis aries) (UniProt P49885+Q9TU15); assay: Relative binding affinity for lamb uterine estrogen receptor at 4C; type: protein assay
[2] = target: T1, Estrogen receptor (Ovis aries); assay: Relative binding affinity for lamb uterine estrogen receptor at 25 degree C; type: protein assay

SMILES | RBA [1] | RBA [2]
C[C@]12CC[C@@H]3c4ccc(O)cc4CC[C@H]3[C@@H]1CC[C@@]2(O)/C=C\I | 202 | 776
C[C@]12CC[C@@H]3c4ccc(O)cc4CC[C@H]3[C@@H]1CC[C@@]2(O)/C=C/Cl | 102 | 89
CO[C@H]1C[C@@]2(C)[C@@H](CC[C@@]2(O)/C=C\Cl)[C@@H]2CCc3cc(O)ccc3[C@H]21 | 22 | 195
C[C@]12CC[C@@H]3c4ccc(O)cc4CC[C@H]3[C@@H]1CC[C@@]2(O)/C=C\Cl | 126 | 199
C=C[C@H]1C[C@@]2(C)[C@@H](CC[C@@]2(O)/C=C\Cl)[C@@H]2CCc3cc(O)ccc3[C@H]21 | 101 | 704
C=C[C@H]1C[C@@]2(C)[C@@H](CC[C@@]2(O)/C=C/Cl)[C@@H]2CCc3cc(O)ccc3[C@H]21 | 107 | 724
C=C[C@H]1C[C@@]2(C)[C@@H](CC[C@@]2(O)/C=C\I)[C@@H]2CCc3cc(O)ccc3[C@H]21 | 98 | 1200
C=C[C@H]1C[C@@]2(C)[C@@H](CC[C@@]2(O)/C=C/I)[C@@H]2CCc3cc(O)ccc3[C@H]21 | 78 | 447
C[C@]12CC[C@@H]3c4ccc(O)cc4CC[C@H]3[C@@H]1CC[C@@]2(O)/C=C/I | 77 | 62
CO[C@H]1C[C@@]2(C)[C@@H](CC[C@@]2(O)/C=C\I)[C@@H]2CCc3cc(O)ccc3[C@H]21 | 48 | 513
CO[C@H]1C[C@@]2(C)[C@@H](CC[C@@]2(O)/C=C/Cl)[C@@H]2CCc3cc(O)ccc3[C@H]21 | 29 | 65
CO[C@H]1C[C@@]2(C)[C@@H](CC[C@@]2(O)/C=C/I)[C@@H]2CCc3cc(O)ccc3[C@H]21 | 34 | 65
